Assay results taken from patent publication US5213978A, “Protease from Micrococcus sedentarius for degrading protein of human callus or corn tissue” (Scholl Plc, priority 1990, dated 1993).

Tested on: Micrococcus sedentarius NCIMB 40287
Assay: Antibiotic sensitivities by the disc method
Assay type: cell-based
Details: disc amount as printed per antibiotic (1 unit, 5-30 μg)

| Compound | Antibiotic sensitivity |
| --- | --- |
| CN[C@H](CC(C)C)C(=O)N[C@H]1C(=O)N[C@@H](CC(N)=O)C(=O)N[C@H]2C(=O)N[C@H]3C(=O)N[C@H](C(=O)N[C@H](C(=O)O)c4cc(O)cc(O)c4-c4cc3ccc4O)[C@H](O)c3ccc(c(Cl)c3)Oc3cc2cc(c3O[C@@H]2O[C@H](CO)[C@@H](O)[C@H](O)[C@H]2O[C@H]2C[C@](C)(N)[C@H](O)[C@H](C)O2)Oc2ccc(cc2Cl)[C@H]1O [Vanomycin] | S |
| Neomycin | S |
